# Results: US20260174766A1, “COMBINATION OF MENIN INHIBITOR(S) AND IMMUNOPROTEASOME INHIBITOR(S) FOR TREATMENT OF LEUKEMIA” (Medizinische Hochschule Hannover, priority 2022, published 2026)
# Tests used:
# [1] = system: primary human leukemia cells harboring an MLL-AF4 fusion; test: MLL-AF4 patient-derived xenograft model with in vivo treatment and limiting dilution assay; parameters: species or system mouse; settings: ELDA; engraftment >1% hCD45+ in peripheral blood three months after transplantation; DMSO 1/247973
# From the text: NOD.Cg-Prkdc^scid Il2rg^tm1Wjl Tg(CMV-IL3, CSF2, KITLG) 1Eav/MloySzJ (NSGS), NOD.Cg-Prkdc^scid Il2rg^tm1Wjl/SzJ (NSG) or NOD.Cg-Prkdc^scid Il2rg^tm1Wjl/RJ (NXG) were obtained from The Jackson Laboratory (Bar Harbor, ME, USA). 8-12-weeks old adult mice (male and female) were irradiated with 2 Gy (single dose) before transplantation. 1×10^5 MOLM-13, ML-2 or MV-4; 11 cells transduced with either of two PSMB8/LMP7 shRNAs or non-targeting control; with a pLEX vector containing the sequence of BASP1 or an empty vector; or treated ex vivo with the indicated inhibitors were injected intravenously via the tail vein. For patient derived xenograft experiments (PDX) of human MLLr leukemia we used an improved model for human HSC transplantation and analysis, that has been developed from immune-deficient mouse strains containing Kit mutations: NOD.Cg-^KitW-41J Prkdc^scid Il2rg^tm1Wjl/WaskJ (NSGW41) (Cosgun et al., 2014). […] Human myeloid engraftment (hCD45+ CD13+) was analyzed by flow cytometry. […]
# FIGS. 4J-4K show number of engrafted mice per dilution (engraftment is considered if the percentage of hCD45+ cells is >1% in peripheral blood three months after transplantation) is shown and leukemic stem cell (LSC) frequency calculated using the ELDA (Extreme Limiting Dilution Assay) software (reference). […]
# [2] = system: MLLr cell lines; test: Cell growth (cell counting after trypan blue exclusion) of MLLr cell lines; format: cell-based, human; settings: 250-500 nM; MOLM-13, MV-4;11, ML-2, KOPN-8; FIG. 1H
# Method: MOLM-13, MONO-MAC-6, THP-1, KOPN-8, ML-2, MV-4;11, OCI-AML3, U-937, KASUMI-1, K-562, HL-60 and LAMA-84 cells were purchased from DSMZ (Braunschweig, Germany). Cas9-Blast cell lines are subclones of the respective cell lines and stably transduced with lentiCas9-Blast (Addgene plasmid #52962). Cells were cultured in RPMI 1640 medium (Thermo Fisher Scientific, Waltham, MA, USA) supplemented with 10-20% FBS (Thermo Fisher Scientific) in a humid atmosphere of 5% CO2 at 37° C. MV4;11 cells harboring Menin-inhibitor resistance mediating mutations of Menin were generated by CRISPR-Cas9 technology.
# Cellular proliferation was assessed by cell counting after trypan blue exclusion. Apoptosis of cells was measured by flow cytometry using Annexin V/SYTOX® Blue staining following the manufacturer's instruction.
Compound,LSC frequency [1],reduction of cell growth in MLL-rearranged human AML cell lines [2]
"Cc1c(CN2CCC(Nc3ncnc4sc(CC(F)(F)F)cc34)CC2)ccc2c1cc(C#N)n2Cc1cn[nH]c1 [MI-503, 4-Methyl-1-(1H-pyrazol-4-ylmethyl)-5-[[4-[[6-(2,2,2-trifluoroethyl)thieno[2,3-d]pyrimidin-4-yl]amino]-1-piperidinyl]methyl]-1H-indole-2-carbonitrile]",1/363914,–
"O=C(N[C@H](Cc1coc2ccccc12)B(O)O)[C@@H]1C[C@@H]2CC[C@H]1O2 [M3258, ((S)-2-(benzofuran-3-yl)-1-((1R,2R,4S)-7-oxabicyclo[2.2.1]heptane-2-carboxamido)ethyl)boronic acid]",–,recapitulated
